One series deals with NOS. Put plainly: Colonic mucosal NOS activity after dietary treatment. Type of series: in vivo, male F344 rats. The conditions noted are these: 500 ppm in diet; AOM-treated rats, colonic mucosa; Mean ± SEM. The method, then:
In Vivo Assay of Modulation of Colonic Mucosal Activities of NOS and COX isoforms by iNOS and COX-2 Inhibitors
NOS and iNOS activities were determined in colonic samples as prepared and described above. Conversion of L-arginine to L-citrulline was measured by a modification of an earlier described method (Rao et al, Carcinogenesis 21, supra; Ambs et al., Cancer Res. 58:334-41, 1998, which is herein incorporated by reference). The assay was carried out by adding 100 μg sample protein to 150 μl of assay buffer [50 mM HEPES, 1 mM DTT, 1 mM MgCl2, 5 mg/L pepstatin A, 0.1 mM PMSF, and 3 mg/L aprotinin, pH 7.4] containing 70 μM arginine, 250,000 dpm L-[^3H]-arginine, 2 mM NADPH, 5μM tetrahydro biopterin, 5 μM flavin adenine dinucleotide, and 0.5 mM CaCi2 to measure total NOS activity, or 1 mM EGTA (without calcium) to determine Ca+^2-independent iNOS activity. After 30 min at 37° C., the reaction was stopped with 100 μl of 1M trichloroacetic acid. Then the samples were adjusted to pH 4.6 by adding 500 μl of 20 mM HEPES and loaded on to Dowex AG 50W-X8 resin columns. L-[^3H]-citrulline was eluted and separated on TLC. Radioactivity was counted by a BioScan Radiomatic detector. Results are expressed as pmol L-[^3H]-citrulline released/mg protein/min.

The next series deals with AOM-induced colonic ACF. Put plainly: Chemopreventive effects in rats with azoxymethane-induced aberrant crypt foci. Type of series: in vivo, male F344 rats. Conditions: for Foci containing 1 Crypt / Foci containing 2 Crypt / Foci containing 3 Crypt / Foci containing ≧4 Crypts / Total ACF incidence: AOM-treated male F344 rats, Mean ± SEM; for inhibition at 320 ppm: feed or water, positive control. The source says: In Vivo Assay of Chemopreventive Effects of Therapeutic Compounds in Rats with Azoxymethane-induced Aberrant Crypt Foci
(§1) Azoxymethane (AOM) (CAS:25843-45-2) was purchased from Ash Stevens (Detroit, Mich.). iNOS and COX-2 selective inhibitors were provided by Pharmacia, (St. Louis, […].). Sulindac, a non-selective inhibitor of COX-isoforms and a known inhibitor of colon carcinogenesis, was supplied by the Chemoprevention Branch of the National Cancer Institute (Bethesda, Md.). Weanling male F344 rats were purchased from Charles River Breeding Laboratories (Kingston, N.Y.). All ingredients of the semipurified diet were obtained from Dyets Inc., (Bethlehem, Pa.) and were stored at 4° C. until the experimental diets were prepared. The rats were held in quarantine for 1 week and had access to modified AIN-76A semipurified control diet (Reddy et al., Cancer Res. 50: 2562-2568, 1990, which is herein incorporated by reference.). They were randomly distributed into various dietary groups and were transferred to an animal holding room where they were housed, three rats to a plastic cage, under controlled conditions of a 12-h light/12-h dark cycle, 50% relative humidity and 21° C. room temperature. Experimental diets were prepared by mixing chemopreventive agents with modified AIN-76A control diet.
To quantify aberrant crypt foci, after a minimum of 24 h in buffered formalin, the colons were cut into 2-cm segments starting at the anus; for the next 5-10 min they were placed in a Petri dish containing 0.2% methylene blue in Krebs Ringer solution. They were then placed, mucosal side up, on a microscope slide and observed through a light microscope. Aberrant crypt foci were recorded according to standard procedures that are being used routinely in our laboratory (Rao et al., Carcinogenesis 21: 617-21, 2000; Rao et al., Cancer Res. 53:4182-88, 1993, which are herein incorporated by reference.). […] The parameters used to assess the aberrant crypts were their occurrence and multiplicity. Crypt multiplicity was determined as the number of crypts in each focus and categorized as containing up to 3, or 4 or more aberrant crypts/focus.

Series [1] has as its system LPS-induced increase in plasma nitrite/nitrate levels. Description: In Vivo Assay, endotoxin-treated rats, plasma nitrite/nitrate. Conditions: administered orally. As for the experimental part:
Plasma nitrite/nitrate levels can be determined 5 hours post-treatment.

In the next series the test system is Human Cartilage. Put plainly: Human Cartilage Explant Assay (nitrite production). Type of series: cell-based. Conditions: inhibition of nitrite production, IL-1β-induced explants. As for the experimental part:
Human Cartilage Explant Assay
Bone pieces are rinsed twice with Dulbecco's Phosphate Buffered Saline (GibcoBRL) and once with Dulbecco's Modified Eagles Medium (GibcoBRL) and placed into a petri dish with phenol red free Minimum Essential Medium (MEM) (GibcoBRL). Cartilage was cut into small explants of approximately 15-45 mg in weight and one or two explants per well are placed into either 96 or 48 well culture plates with 200-500 μL of culture media per well. The culture media was either a custom modification of Minimum Essential Medium(Eagle) with Earle's salts (GibcoBRL) prepared without L-Arginine, without L-Glutamine and without phenol red or a custom modification of serumless Neuman and Tytell (GibcoBRL) medium prepared without L-arginine, without insulin, without ascorbic acid, without L-glutamine and without phenol red. Both are supplemented before use with 100 μM L-Arginine (Sigma), 2 mM L-glutamine, 1X HL-1 supplement (BioWihittaker), […] ascorbic acid (Sigma) and 150 pg/ml recombinant human IL-1β (RD Systems) to induce nitric oxide synthase. Compounds are then added in 10 μL aliquots and the explants incubated at 37° C. with 5% CO2 for 18-24 hours. The day old supernatant is then discarded and replaced with fresh culture media containing recombinant human IL-1? and compound and incubated for another 20-24 hours. […] All samples are done in quadruplicate. Unstimulated controls are cultured in media in the absence of recombinant human IL-1β. IC50 values (Table I) are determined from plotting the percent inhibition of nitrite production at six different concentrations of inhibitor.

Series [2] concerns azoxymethane-induced colonic aberrant crypt foci. Conditions: cited from earlier work; for formation of colonic aberrant crypt foci: male F344 rats.
Series [3] is described as follows: Body weights and toxicity on experimental diets. Type of series: in vivo, male F344 rats.
Text: as §1

Setting [4] is: Rattus norvegicus, po, read-out: ED50.

Counter-ions that a name gives are not always drawn. Like-named read-outs stand apart in the source and are kept apart here.

As for `Cc1ccc(-c2cc(C(F)(F)F)nn2-c2ccc(S(N)(=O)=O)cc2)cc1` [Celecoxib, celecoxib], the “NOS Activity, NOS” value in the series on NOS is 11.3 ± 2.1 pmoles [^3H]-citrulline/mg pro. Further, in the series with AOM-induced colonic ACF (500 ppm in diet), the “Foci containing 1 Crypt” value is reported as 26.8 ± 2.1, the “Foci containing 2 Crypt” value is 27.3 ± 2.0, the “Foci containing 3 Crypt” value was 23.7 ± 2.3 and the “Foci containing ≧4 Crypts” value turned out to be 23.3 ± 2.7. The “Total ACF incidence” value in the series on AOM-induced colonic ACF (500 ppm in diet) came out at 102 ± 7.5. The inhibition at 500 ppm in the series with AOM-induced colonic ACF (Rattus norvegicus, 500 ppm, read-out: inhibition of total ACF) lay in the range of 5 to 20%.

In the case of `CC(=N)NC/C(F)=C\CC[C@H](N)C(=O)O` [Example A, (2S,5E)-2-amino-6-fluoro-7-[(1-iminoethyl)amino]-5-heptenoic acid, dihydrochloride], the ED50 in series [1] (dihydrochloride) is reported as under 0.1 mg/kg.

Turning to `CC(=N)NC/C(F)=C\CC[C@](C)(N)C(=O)O.Cl.Cl` [Example HH, (2S,5E)-2-amino-2-methyl-6-fluoro-7-[(1-iminoethyl)amino]-5-heptenoic acid, dihydrochloride], the ED50 in series [1] (setting [4]) is 0.4 mg/kg. Moreover, the midpoint of inhibition in the series with Human Cartilage (Homo sapiens), the IC50, lay at 0.4 µM.

For `COC[C@](N)(CSCCNC(C)=N)C(=O)O` [Example J, 2-[[[2-[(1-Iminoethyl)amino]ethyl]thio]methyl]-O-methyl-D-serine, dihydrochloride], in the series on Human Cartilage, the concentration for half-maximal inhibition (IC50) is 8.2 µM.

As to `CC(=N)NC/C=C\CC[C@](C)(N)C(=O)O.Cl.Cl` [Example LL, (2S,5Z)-2-amino-2-methyl-7-[(1-iminoethyl)amino]-5-heptenoic acid, dihydrochloride], the ED50 in series [1] (setting [4]) was 0.3 mg/kg. In the series on Human Cartilage (Homo sapiens), this compound gave an IC50 of 0.8 µM.

As for `Cl.N=C1CCCC[C@H](CCCC[C@@H](N)C(=O)O)N1.O.O.O` [Example V, (αR,2S)-α-aminohexahydro-7-imino-1H-azepine-2-hexanoic acid, trihydrate hydrochloride], in series [1] (setting [4]), the ED50 is under 3 mg/kg. In the series on Human Cartilage (Homo sapiens), this compound gave an IC50 of under 10 µM.

As to `Cl.N=C1CCCC[C@@H](CCCC[C@H](N)C(=O)O)N1.O.O.O` [Example W, (αS,2R)-α-aminohexahydro-7-imino-1H-azepine-2-hexanoic acid, trihydrate hydrochloride], in series [1] (setting [4]), the ED50 is over 10 mg/kg. Also, in the series with Human Cartilage (Homo sapiens), the IC50 is over 30 µM.

Consider `N=C1CCCC[C@H](CCCC[C@H](N)C(=O)O)N1` [Example X, (αS,2S)-α-aminohexahydro-7-imino-1H-azepine-2-hexanoic acid, trihydrate hydrochloride], for which the IC50 in the series on Human Cartilage is under 10 µM.

Compound `N=C1CCCC[C@H](CCCC[C@H](N)C(=O)O)N1` [Example Z, (αS,2S)-α-aminohexahydro-7-imino-1H-azepine-2-hexanoic acid, trihydrate hydrochloride] registered an IC50 with Human Cartilage (Homo sapiens) of under 10 µM.

Consider `N=C(N)SCCc1ccc(CCSC(=N)N)cc1` [PBIT], for which, in series [2] (laboratory rodents), the “azoxymethane-induced colonic aberrant crypt foci development and iNOS activity” value is on record as “prevented”.

In the case of `CC1=C(CC(=O)O)c2cc(F)ccc2/C1=C\c1ccc([S+](C)[O-])cc1` (stereo not shown) [Sulindac], in the series on AOM-induced colonic ACF (320 ppm in diet), the “Foci containing 1 Crypt” value was found to be 23.3 ± 1.8, the “Foci containing 2 Crypt” value is recorded as 28.0 ± 1.5, the “Foci containing 3 Crypt” value was found to be 17.3 ± 1.7 and the “Foci containing ≧4 Crypts” value amounted to 16.5 ± 0.9. In addition, the “Total ACF incidence” value with AOM-induced colonic ACF (320 ppm in diet) worked out at 84.9 ± 4.1. Moreover, the inhibition at 320 ppm in the series on AOM-induced colonic ACF (Rattus norvegicus, 320 ppm in diet, read-out: inhibition of multicrypt clusters containing 4 or more aberrant crypts/focus) turned out to be 50%. In addition, in the series on AOM-induced colonic ACF (Rattus norvegicus, 320 ppm in diet, read-out: inhibition of total ACF/colon), the inhibition at 320 ppm came out at 40%. Besides, the body weights entry in series [3] (rats treated with vehicle or AOM, control vs experimental diets, throughout the study period) is on record as “comparable”. In addition, the “toxicity or gross changes in the liver, kidney, intestine and lungs” value in series [3] (vehicle-treated rats fed the experimental diets) is on record as “did not produce any toxicity or any gross changes”.

With `COc1ccc2cc(CCC(C)=O)ccc2c1` [nabumetone], the “formation of colonic aberrant crypt foci” value in series [2] is “inhibit”.

For the compound `CS(=O)(=O)Nc1ccc([N+](=O)[O-])cc1Oc1ccccc1` [nemisulide], the “formation of colonic aberrant crypt foci” value in series [2] is recorded as “inhibit”.

The term ED50 denotes the midpoint of the dose-response relation. Usually IC50 stands for the concentration needed to halve the response being measured. A high value points to weaker potency in that assay.
